Source: ChEMBL document CHEMBL1201862, “PubChem BioAssay data set” (2004)
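How tested: cells in 96-well plates exposed to compound for 48 hours at five concentrations. GI50 is the concentration that inhibits growth by half.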 Active and inactive are the calls of the source. No stated cut-off is given here; in the data, active = GI50 up to about 1.1 µM and inactive = higher.

Assays:
Assay in all cases: DTP human tumour cell line panel, 48 h
CCRF-CEM = system: CCRF-CEM
DU-145 = system: DU-145
HCT-116 = system: HCT-116
HT-29 = system: HT-29
KM12 = system: KM12
LOX IMVI = system: LOX IMVI
MCF7 = system: MCF7
MDA-MB-231 = system: MDA-MB-231
MDA-MB-435 = system: MDA-MB-435
NCI-H226 = system: NCI-H226
OVCAR-3 = system: OVCAR-3
PC-3 = system: PC-3
RPMI-8226 = system: RPMI-8226
TK-10 = system: TK-10
UACC-257 = system: UACC-257
NCI-H23 = system: NCI-H23
RXF 393 = system: RXF 393
UACC-62 = system: UACC-62
UO-31 = system: UO-31
SR = system: SR

SMILES	GI50 (CCRF-CEM)	GI50 (DU-145)	GI50 (HCT-116)	GI50 (HT-29)	GI50 (KM12)	GI50 (LOX IMVI)	GI50 (MCF7)	GI50 (MDA-MB-231)	GI50 (MDA-MB-435)	GI50 (NCI-H226)	GI50 (OVCAR-3)	GI50 (PC-3)	GI50 (RPMI-8226)	GI50 (TK-10)	GI50 (UACC-257)	GI50 (NCI-H23)	GI50 (RXF 393)	GI50 (UACC-62)	GI50 (UO-31)	GI50 (SR)
COc1c(O)c(OC)c(C(=O)/C=C/c2ccccc2)c(O)c1OC [PEDICIN]	94.6 µM (inactive)	29.1 µM (inactive)	17.7 µM (inactive)	32.6 µM (inactive)	30.3 µM (inactive)	30.3 µM (inactive)	26.9 µM (inactive)	21.3 µM (inactive)	27.9 µM (inactive)	29.4 µM (inactive)	22.2 µM (inactive)	41.6 µM (inactive)	34.6 µM (inactive)	36.3 µM (inactive)	> 100 µM (inactive)	–	–	–	–	–
COc1cc(OC)c(OC)cc1/C=C/c1ccccn1	> 10 µM (inactive)	> 10 µM (inactive)	> 10 µM (inactive)	> 10 µM (inactive)	> 10 µM (inactive)	> 10 µM (inactive)	> 10 µM (inactive)	> 10 µM (inactive)	> 10 µM (inactive)	> 10 µM (inactive)	> 10 µM (inactive)	> 10 µM (inactive)	–	> 10 µM (inactive)	> 10 µM (inactive)	> 10 µM (inactive)	> 10 µM (inactive)	> 10 µM (inactive)	> 10 µM (inactive)	–
CCN(CC)CCNC(=O)c1nn(-c2ccc(Cl)cc2)c2c1CCc1cc(OC)ccc1-2	5.3 µM (inactive)	15.3 µM (inactive)	3.56 µM (inactive)	2.64 µM (inactive)	6.53 µM (inactive)	2.03 µM (inactive)	–	12.1 µM (inactive)	9.98 µM (inactive)	9.38 µM (inactive)	7.24 µM (inactive)	12.6 µM (inactive)	2.9 µM (inactive)	11 µM (inactive)	1.82 µM (inactive)	12.8 µM (inactive)	3.04 µM (inactive)	2.77 µM (inactive)	2.49 µM (inactive)	4.28 µM (inactive)
S=C(N/N=C\C=N/NC(=S)N1CCCCC1)N1CCCCC1	–	0.202 µM (active)	0.124 µM (active)	0.163 µM (active)	0.54 µM (active)	0.32 µM (active)	0.466 µM (active)	> 96.2 µM (inactive)	1.01 µM (active)	0.489 µM (active)	0.251 µM (active)	0.387 µM (active)	0.433 µM (active)	1.61 µM (inactive)	1.25 µM (inactive)	1.16 µM (inactive)	0.296 µM (active)	0.594 µM (active)	0.195 µM (active)	–
CC1=C2C(=O)c3ccccc3C(=O)[C@H]2C[C@@H](N2CCCCCC2=O)O1	3.44 µM (inactive)	18.3 µM (inactive)	–	27 µM (inactive)	16.7 µM (inactive)	17.3 µM (inactive)	–	22.5 µM (inactive)	16 µM (inactive)	30.5 µM (inactive)	18 µM (inactive)	17.9 µM (inactive)	14.6 µM (inactive)	23 µM (inactive)	17.4 µM (inactive)	14.9 µM (inactive)	27 µM (inactive)	19.2 µM (inactive)	17 µM (inactive)	6.92 µM (inactive)
O=S(=O)(c1ccccc1)c1ccc(/N=N/O)nc1	59.4 µM (inactive)	> 100 µM (inactive)	> 100 µM (inactive)	> 100 µM (inactive)	> 100 µM (inactive)	–	76 µM (inactive)	> 100 µM (inactive)	–	> 100 µM (inactive)	> 100 µM (inactive)	> 100 µM (inactive)	–	> 100 µM (inactive)	> 100 µM (inactive)	> 100 µM (inactive)	–	> 100 µM (inactive)	> 100 µM (inactive)	> 100 µM (inactive)
Cc1ccc(-n2nncc2[Si](C)(C)C)s1	22.6 µM (inactive)	> 100 µM (inactive)	> 100 µM (inactive)	> 100 µM (inactive)	–	> 100 µM (inactive)	> 100 µM (inactive)	> 100 µM (inactive)	> 100 µM (inactive)	> 100 µM (inactive)	> 100 µM (inactive)	> 100 µM (inactive)	> 100 µM (inactive)	> 100 µM (inactive)	> 100 µM (inactive)	> 100 µM (inactive)	–	> 100 µM (inactive)	> 100 µM (inactive)	–
CC(=O)C1C(=O)C(=O)N(c2cccc(C)c2C)C1=O (stereo unspecified)	–	> 100 µM (inactive)	> 100 µM (inactive)	> 100 µM (inactive)	> 100 µM (inactive)	> 100 µM (inactive)	> 100 µM (inactive)	> 100 µM (inactive)	–	> 100 µM (inactive)	> 100 µM (inactive)	> 100 µM (inactive)	–	> 100 µM (inactive)	> 100 µM (inactive)	> 100 µM (inactive)	–	> 100 µM (inactive)	> 100 µM (inactive)	–
